Target: His-Tagged hOGA (Homo sapiens (Human), UniProt O60502)
Assay: Human O-GlcNAcase enzyme inhibition assay
Format: biochemical
Conditions: FL-GlcNAc substrate, 60 min at room temperature, pH 6.5; read-out: OGA IC50
Procedure: Example B01: Human O-GlcNAcase Enzyme Inhibition Assay
5 μl of the appropriate concentration of a solution of inhibitor in Mcllvaine's Buffer (pH 6.5) in 2% DMSO (for a dose response curve calculation) is added into each well of a 384-well plate (Greiner, 781900). Then, 20 nM of His-Tagged hOGA and 10 μM of FL-GlcNAc (Fluorescein mono-beta-D-(2-deoxy-2-N-acetyl) glucopyranoside; Marker Gene Technologies Inc, M1485) were added to the 384-well plate for a final volume of 20 μl. After incubation for 60 min at room temperature, the reaction was terminated by the addition of 10 μL of stop buffer (200 mM glycine, pH 10.75).

Sequence of His-Tagged hOGA (O60502 whole entry): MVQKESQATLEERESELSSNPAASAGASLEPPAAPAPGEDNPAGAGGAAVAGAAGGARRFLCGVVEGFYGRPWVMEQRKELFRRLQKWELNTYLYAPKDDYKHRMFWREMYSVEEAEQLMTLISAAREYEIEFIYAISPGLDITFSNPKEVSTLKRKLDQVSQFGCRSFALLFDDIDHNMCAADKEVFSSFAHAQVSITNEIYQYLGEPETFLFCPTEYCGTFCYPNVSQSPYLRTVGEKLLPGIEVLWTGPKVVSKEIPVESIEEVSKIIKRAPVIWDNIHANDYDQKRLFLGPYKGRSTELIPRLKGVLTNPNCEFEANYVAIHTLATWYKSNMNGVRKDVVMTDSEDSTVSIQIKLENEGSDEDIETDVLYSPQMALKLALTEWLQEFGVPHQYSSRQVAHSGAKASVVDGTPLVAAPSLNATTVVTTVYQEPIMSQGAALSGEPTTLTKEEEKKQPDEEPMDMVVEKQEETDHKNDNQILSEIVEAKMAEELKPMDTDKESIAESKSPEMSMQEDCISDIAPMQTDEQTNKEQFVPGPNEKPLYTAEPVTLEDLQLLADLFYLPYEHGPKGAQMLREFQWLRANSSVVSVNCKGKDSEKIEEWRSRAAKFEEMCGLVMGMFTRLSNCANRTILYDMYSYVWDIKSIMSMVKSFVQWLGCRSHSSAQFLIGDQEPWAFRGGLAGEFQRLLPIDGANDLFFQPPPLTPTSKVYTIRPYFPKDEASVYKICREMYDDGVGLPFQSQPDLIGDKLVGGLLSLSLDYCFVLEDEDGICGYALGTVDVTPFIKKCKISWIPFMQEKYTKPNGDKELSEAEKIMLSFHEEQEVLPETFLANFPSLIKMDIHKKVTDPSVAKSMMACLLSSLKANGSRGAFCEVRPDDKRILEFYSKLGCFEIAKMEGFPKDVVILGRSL

| SMILES | IC50 |
| --- | --- |
| CC(=O)Nc1nnc(N2CCN(C(C)c3ccc4c(c3)OC(C)(C)C4)CC2)s1 (racemic) [Example 4, N-(5-(4-(1-(2,2-dimethyl-2,3-dihydrobenzofuran-6-yl)ethyl)piperazin-1-yl)-1,3,4-thiadiazol-2-yl)acetamide] | 1000 to 10000 nM |
| CC(c1ccc2c(c1)OC(C)(C)C2)N1CCN(c2ncc(S(C)(=N)=O)cn2)CC1 (racemic) [Example 5, (2-(4-(1-(2,2-dimethyl-2,3-dihydrobenzofuran-6-yl)ethyl)piperazin-1-yl)pyrimidin-5-yl)(imino)(methyl)-λ^6-sulfanone] | 1000 to 10000 nM |
| CC(c1ccc2c(c1)OC(C)(C)C2)N1CCN(c2ncc3c(n2)CCNC3=O)CC1 (racemic) [Example 6, 2-(4-(1-(2,2-dimethyl-2,3-dihydrobenzofuran-6-yl)ethyl)piperazin-1-yl)-7,8-dihydropyrido[4,3-d]pyrimidin-5(6H)-one] | 1000 to 10000 nM |
| CC(=O)Nc1nnc(N2CCN(C(C)c3cnc4c(c3)OC(C)C4)CC2)s1 (racemic) [Example 8, N-(5-(4-(1-(2-methyl-2,3-dihydrofuro[3,2-b]pyridin-6-yl)ethyl)piperazin-1-yl)-1,3,4-thiadiazol-2-yl)acetamide] | 200 to 1000 nM |
| CC(=O)Nc1nnc(N2CCN(C(C)c3ccc4c(c3)O[C@H](C)C4)CC2)s1 (single isomer, unassigned) [Example 11] | 200 to 1000 nM |
| CC(=O)Nc1nnc(N2CCN(C(C)c3ccc4c(c3)O[C@@H](C)C4)CC2)s1 (single isomer, unassigned) [Example 16] | 200 to 1000 nM |
| CC(c1ccc2c(c1)O[C@@H](C)C2)N1CCN(c2ncc3c(n2)CCNC3=O)CC1 (single isomer, unassigned) [Example 18, 2-(4-((S)-1-((S)-2-methyl-2,3-dihydrobenzofuran-6-yl)ethyl)piperazin-1-yl)-7,8-dihydropyrido[4,3-d]pyrimidin-5(6H)-one or 2-(4-((R)-1-((S)-2-methyl-2,3-dihydrobenzofuran-6-yl)ethyl)piperazin-1-yl)-7,8-dihydropyrido[4,3-d]pyrimidin-5(6H)-one] | 50 to 200 nM |
| CC(=O)Nc1nnc(N2CCN(C(C)c3ccc4c(c3)O[C@@H](C)C4)CC2)s1 (stereo partly drawn) [Example 14, N-(5-(4-(1-((S)-2-methyl-2,3-dihydrobenzofuran-6-yl)ethyl)piperazin-1-yl)-1,3,4-thiadiazol-2-yl)acetamide] | 200 to 1000 nM |
| CC(c1ccc2c(c1)O[C@@H](C)C2)N1CCN(c2ncc3c(n2)CCNC3=O)CC1 (stereo partly drawn) [Example 15, 2-(4-(1-((S)-2-methyl-2,3-dihydrobenzofuran-6-yl)ethyl)piperazin-1-yl)-7,8-dihydropyrido[4,3-d]pyrimidin-5(6H)-one] | 200 to 1000 nM |
| CC(c1ccc2c(c1)O[C@H](C)C2)N1CCN(c2n[nH]c(=O)s2)CC1 (stereo partly drawn) [Example 21, 5-(4-(1-((R)-2-methyl-2,3-dihydrobenzofuran-6-yl)ethyl)piperazin-1-yl)-1,3,4-thiadiazol-2(3H)-one] | 50 to 200 nM |

Second part, the compound after the results:

| IC50 | SMILES |
| --- | --- |
| < 50 nM | CC(=O)Nc1nnc(N2CCN(C(C)c3ccc4c(c3)OC(C)C4)CC2)s1 (racemic) [Example 1, N-(5-(4-(1-(2-methyl-2,3-dihydrobenzofuran-6-yl)ethyl)piperazin-1-yl)-1,3,4-thiadiazol-2-yl)acetamide] |
| < 50 nM | CC1Cc2ccc(C(C)N3CCN(c4ncc5c(n4)CCNC5=O)CC3)cc2O1 (racemic) [Example 2, 2-(4-(1-(2-methyl-2,3-dihydrobenzofuran-6-yl)ethyl)piperazin-1-yl)-7,8-dihydropyrido[4,3-d]pyrimidin-5(6H)-one] |
| < 50 nM | CC1Cc2ccc(C(C)N3CCN(c4ncc(S(C)(=N)=O)cn4)CC3)cc2O1 (racemic) [Example 3, Imino(methyl)(2-(4-(1-(2-methyl-2,3-dihydrobenzofuran-6-yl)ethyl)piperazin-1-yl)pyrimidin-5-yl)-λ^6-sulfanone] |
| 50 to 200 nM | CC1Cc2ccc(C(C)N3CCN(c4ccc(S(C)(=O)=O)cc4)CC3)cc2O1 (racemic) [Example 7, 1-(1-(2-methyl-2,3-dihydrobenzofuran-6-yl)ethyl)-4-(4-(methylsulfonyl)phenyl)piperazine] |
| < 50 nM | CC(=O)Nc1nnc(N2CCN(C(C)c3ccc4c(c3)O[C@H](C)C4)CC2)s1 (single isomer, unassigned) [Example 12] |
| < 50 nM | CC(c1ccc2c(c1)O[C@H](C)C2)N1CCN(c2ncc3c(n2)CCNC3=O)CC1 (single isomer, unassigned) [Example 13, 2-(4-((S)-1-((R)-2-methyl-2,3-dihydrobenzofuran-6-yl)ethyl)piperazin-1-yl)-7,8-dihydropyrido[4,3-d]pyrimidin-5(6H)-one or 2-(4-((R)-1-((R)-2-methyl-2,3-dihydrobenzofuran-6-yl)ethyl)piperazin-1-yl)-7,8-dihydropyrido[4,3-d]pyrimidin-5(6H)-one] |
| 50 to 200 nM | CC(=O)Nc1nnc(N2CCN(C(C)c3ccc4c(c3)O[C@@H](C)C4)CC2)s1 (single isomer, unassigned) [Example 17] |
| < 50 nM | CC(=O)Nc1nnc(N2CCN(C(C)c3ccc4c(c3)O[C@H](C)C4)CC2)s1 (stereo partly drawn) [Example 9, N-(5-(4-(1-((R)-2-methyl-2,3-dihydrobenzofuran-6-yl)ethyl)piperazin-1-yl)-1,3,4-thiadiazol-2-yl)acetamide] |
| < 50 nM | CC(c1ccc2c(c1)O[C@H](C)C2)N1CCN(c2ncc3c(n2)CCNC3=O)CC1 (stereo partly drawn) [Example 10, 2-(4-(1-((R)-2-methyl-2,3-dihydrobenzofuran-6-yl)ethyl)piperazin-1-yl)-7,8-dihydropyrido[4,3-d]pyrimidin-5(6H)-one] |
| < 50 nM | CC(c1ccc2c(c1)O[C@H](C)C2)N1CCN(c2ncc(S(C)(=O)=O)cn2)CC1 (stereo partly drawn) [Example 19, 2-(4-(1-((R)-2-methyl-2,3-dihydrobenzofuran-6-yl)ethyl)piperazin-1-yl)-5-(methylsulfonyl)pyrimidine] |
| < 50 nM | CC(c1ccc2c(c1)O[C@H](C)C2)N1CCN(c2ncc(S(C)(=N)=O)cn2)CC1 (stereo partly drawn) [Example 20, imino(methyl)(2-(4-(1-((R)-2-methyl-2,3-dihydrobenzofuran-6-yl)ethyl)piperazin-1-yl)pyrimidin-5-yl)-λ^6-sulfanone] |

Reference: US10995090B2, “Substituted dihydrobenzofuran glycosidase inhibitors” (Asceneuron SA, priority 2016, dated 2021)
